Where two headings read alike, the source gives them in different places.
Target: T1, ACC (acetyl CoA carboxylase) purified from liver of male SD rat (Rattus norvegicus, UniProt P11497)
T1 construct: applied to a monomeric avidin sepharose column, and washed with buffer B. The ACC was eluted with buffer B containing 2 mM d-biotin; from tissue; host or cells: liver of male SD rat
Experiment: Measurement of ACC inhibition activity ([14C]-NaHCO3 incorporation)
Assay type: biochemical
Conditions: ACC inhibition activity rate at 1 μM, read-out: ACC Inhibition (%)
Method: A male SD rat was deprived of food for two days and then fed a high-sucrose diet (component) for two days. While anesthetized with ether, the descending vena cava was cut upon, the animal was bled, and the liver was rapidly recovered. In an ice-cooled buffer solution A (225 mM mannitol, 75 mM sucrose, 10 mM Tris-HCl (pH 7.5), 0.05 mM EDTA, 5 mM potassium citrate, 2.5 mM MgCl2, 10 mg/L pepstatin A, 10 mg/L leupeptin, 1 mM PMSF), the liver was homogenized with a polytone homogenizer. A quantity of buffer A nine times the weight of the liver was added, the mixture was centrifuged for 10 minutes at 1,000 g, the supernatant was recovered, and the supernatant was centrifuged for another 10 minutes at 17,000 g.
Ammonium sulfate was added to 35 percent saturation to the obtained supernatant. The mixture was stirred for 45 minutes and then centrifuged for 10 minutes at 17,000 g. Buffer solution B (100 mM Tris-HCl (pH 7.5), 500 mM NaCl, 1 mM EDTA, 0.1 mM DTT, 10 percent glycerol, 10 mg/L pepstatin A, 10 mg/L leupeptin, 0.5 mM PMSF) was added to the obtained precipitate and dissolved. The solution was then centrifuged for 20 minutes at 40,000 g. The supernatant was dialyzed overnight against buffer C (100 mM Tris-HCl (pH 7.5), 500 mM NaCl, 1 mM EDTA, 0.1 mM DTT, 5 percent glycerol).
The dialyzed supernatant was passed through a […], applied to a monomeric avidin sepharose column, and washed with buffer B. The ACC was eluted with buffer B containing 2 mM d-biotin.
(2 Measurement of ACC Inhibition Activity)
The compounds synthesized in the above-described embodiments were dissolved in DMSO and charged to glass vials. 250 μL of ACC-containing reaction solution (40 mM Tris-HCl (pH 7.5), 40 mM MgCl2, 40 mM sodium citrate, and 2 mM DTT) was added. The mixture was heated for 30 minutes at 37° C. in a thermostatic chamber and then cooled with ice. To reaction solution 1 was added 250 μL of reaction solution 2 containing [14C]—NaHCO3 (40 mM Tris-HCl (pH 7.5), 2 mM DTT, 8 mM ATP, 0.5 mM acetyl CoA) and the mixture was heated for 10 minutes at 37° C. 100 μL of 1N HCl was added to stop the reaction. Water in the reaction solution was removed with a centrifugal evaporator, a scintillator was added, the solid component was dissolved, and the 14C radioactivity was measured with a liquid scintillation counter. The ACC inhibition activity of each compound was calculated from the following equation and converted to the ACC inhibition activity rate (%) at 1 μM.
ACC inhibition rate (%)=(1−(a−c)/(b−c))×100 a. Radioactivity when test drug added b: Radioactivity when test drug not added c: Blank* *Reaction solution 1 to which 100 μL of 1N HCl was added before mixing reaction solution 1 and reaction solution 2

[1] = Table 4-IV, Mode 4 benzenediamine compounds (numbers = x-IV)
[2] = Table 2-III, Mode 3 acetylene/oxadiazole/thiazole compounds (numbers = x-III)
[3] = Table 4-A, further compounds of Modes 2 and 3
[4] = Table 3-I, Mode 1 quinoline compounds (numbers = x-I)

SMILES | inhibition at 1 µM [1] [%] | further results
CC(C)CCN(C)c1ccc(-c2noc(-c3cccc(C(=O)NS(=O)(=O)c4cccc(C(=O)O)c4)c3)n2)cc1NCc1ccc(OCCO)cc1 [Compound 134-IV] | 89 | 
Cc1ccccc1S(=O)(=O)NC(=O)c1cccc(-c2nc(-c3ccc(N(C)CCC(C)C)c(NC(C)c4ccccc4)c3)no2)c1 (stereo not shown) [compound 107] | 100 | 
CC(C)CCN(C)c1ccc(-c2noc(-c3cccc(C(=O)NS(=O)(=O)c4ccccc4)c3)n2)cc1[N+](=O)[O-] [compound 37] | 86 | 
CCCCCC(=O)NS(=O)(=O)c1ccccc1NC(=O)c1ccc(Nc2ccc(C(F)(F)F)cc2)c(NC(=O)OCc2ccccc2)c1 [compound 35] | 91 | 
CN(C)CCNc1ccc(C(=O)Nc2cccc(C(=O)NS(=O)(=O)c3ccccc3)c2)cc1[N+](=O)[O-] [compound 62] | 53 | 
O=[N+]([O-])c1ccccc1S(=O)(=O)Nc1ccc(-c2csc(-c3ccccc3)n2)cc1 [compound 77] |  | inhibition at 1 µM [2]: 64%
CC(C)CCN(C)c1ccc(-c2noc(-c3cccc(C(=O)NS(=O)(=O)c4ccccc4)c3)n2)cc1NCc1ccccc1 [compound 45] | 100 | 
O=C(O)c1ccccc1-c1nc(-c2ccc(-c3nc(-c4cc(C(F)(F)F)cc(C(F)(F)F)c4)cs3)cc2)cs1 [compound 1] |  | inhibition at 1 µM [2]: 62%
O=C(NS(=O)(=O)c1cccc(-c2nc(-c3ccc(-c4csc(-c5ccccc5)n4)cc3)no2)c1)c1ccc(-n2ccnc2)cc1 [Compound 138-III] |  | inhibition at 1 µM [3]: 100%
Nc1ccccc1S(=O)(=O)NC(=O)c1cccc(-c2nc(-c3ccc(-c4csc(-c5ccccc5)n4)cc3)no2)c1 [Compound 137-III] |  | inhibition at 1 µM [3]: 96%
Cc1ccccc1S(=O)(=O)NC(=O)CC(NC(=O)c1ccc(N(C)CCC(C)C)c(NCC2CCCCC2)c1)C1CCCCC1 (stereo not shown) [compound 83] | 92 | 
CCCCS(=O)(=O)NC(=O)CC(NC(=O)c1ccc2nc(-c3cc(C(F)(F)F)cc(C(F)(F)F)c3)ccc2c1)c1cccc2ccccc12 (stereo not shown) [compound 94] |  | inhibition at 1 µM [4]: 50%
O=C(NS(=O)(=O)c1cccc(-c2nc(-c3ccc(-c4csc(-c5ccccc5)n4)cc3)no2)c1)c1ccccc1 [Compound 136-III] |  | inhibition at 1 µM [3]: 94%
CCCCS(=O)(=O)NC(=O)CC1(NC(=O)c2ccc3nc(-c4cc(C(F)(F)F)cc(C(F)(F)F)c4)ccc3c2)CCCCC1 [compound 54] |  | inhibition at 1 µM [4]: 45%
O=C(O)c1ccc(-c2nc(-c3ccc(-c4csc(-c5ccc(C(F)(F)F)cc5)n4)cc3)no2)cc1 [compound 51] |  | inhibition at 1 µM [2]: 53%
CC(C)CCN(C)c1ccc(C(=O)NC(CC(=O)NS(=O)(=O)c2ccccc2)C2CCCCC2)cc1NCc1ccccc1 (stereo not shown) [compound 54] | 87 | 
CCCCS(=O)(=O)NC(=O)C1CCc2ccccc2[C@@H]1NC(=O)c1ccc2nc(-c3cc(C(F)(F)F)cc(C(F)(F)F)c3)ccc2c1 (stereo partly shown) [compound 57] |  | inhibition at 1 µM [4]: 59%
CC(C)c1ccc(S(=O)(=O)NC(=O)c2ccccc2-c2csc(-c3ccc4nc(-c5cc(C(F)(F)F)cc(C(F)(F)F)c5)ccc4c3)n2)cc1 [compound 115] |  | inhibition at 1 µM [4]: 97%

SMILES | inhibition at 1 µM [1] [%] | further results
O=C(Nc1ccccc1C(=O)O)c1ccc2nc(-c3cc(C(F)(F)F)cc(C(F)(F)F)c3)ccc2c1 [compound 3] |  | inhibition at 1 µM [4]: 53%
O=[N+]([O-])c1ccccc1S(=O)(=O)Nc1cccc(-c2csc(-c3ccccc3)n2)c1 [compound 82] |  | inhibition at 1 µM [2]: 63%
CC(C)CCN(C)c1ccc(C(=O)N[C@H]2CCCC[C@H]2C(=O)NS(=O)(=O)c2ccccc2)cc1NCc1ccccc1 [Compound 144-IV] | 94 | 
CC(C)CCN(C)c1ccc(-c2noc(-c3cccc(C(=O)NS(=O)(=O)c4ccccc4)c3)n2)cc1NCc1cc(O)cc(O)c1 [compound 114] | 77 | 
O=C(Nc1ccc(-c2csc(-c3ccccc3)n2)cc1)N[C@H](Cc1ccccc1)C(=O)O [compound 103] |  | inhibition at 1 µM [2]: 63%
Nc1ccc(S(=O)(=O)NC(=O)c2cccc(-c3nc(-c4ccc(-c5csc(-c6ccccc6)n5)cc4)no3)c2)cc1 [Compound 132-III] |  | inhibition at 1 µM [3]: 96%
CCCCCC(=O)NS(=O)(=O)c1ccccc1NC(=O)c1ccc2nc(-c3cc(C(F)(F)F)cc(C(F)(F)F)c3)c(CCCl)cc2c1 [compound 103] |  | inhibition at 1 µM [4]: 50%
Nc1cccc(S(=O)(=O)Nc2ccc(-c3csc(-c4ccccc4)n3)cc2)c1 [compound 91] |  | inhibition at 1 µM [2]: 65%
CC(C)c1ccc(S(=O)(=O)NC(=O)CC(NC(=O)c2ccc3nc(-c4cc(C(F)(F)F)cc(C(F)(F)F)c4)ccc3c2)c2ccccc2)cc1 (stereo not shown) [compound 49] |  | inhibition at 1 µM [4]: 62%
CC(C)c1ccc(S(=O)(=O)NC(=O)C(Cc2ccccc2)NC(=O)Nc2ccc(-c3csc(-c4ccccc4)n3)cc2)cc1 (stereo not shown) [compound 130] |  | inhibition at 1 µM [2]: 88%
O=C(Nc1ccc(C#Cc2cccc(C(F)(F)F)c2)cc1)NC(Cc1ccccc1)C(=O)O (stereo not shown) [compound 66] |  | inhibition at 1 µM [2]: 73%
CCCCCC(=O)NS(=O)(=O)c1ccccc1NC(=O)c1ccc(Nc2ccccc2)c(NC(=O)c2cc(C(F)(F)F)cc(C(F)(F)F)c2)c1 [compound 26] | 78 | 
CC(C)(C)c1ccc(C(=O)NS(=O)(=O)c2ccccc2NC(=O)c2ccc3nc(-c4cccc(C(F)(F)F)c4)n(-c4ccccc4)c3c2)cc1 [compound 5] |  | inhibition at 1 µM (Table 3-II, Mode 2 benzimidazole compounds (numbers = x-II)): 89%
O=S(=O)(Nc1ccc(-c2csc(-c3ccccc3)n2)cc1)c1ccccc1NO [compound 78] |  | inhibition at 1 µM [2]: 55%
Cc1ccccc1S(=O)(=O)NC(=O)c1cccc(-c2nc(-c3ccc(-c4csc(-c5ccccc5)n4)cc3)no2)c1 [Compound 141-III] |  | inhibition at 1 µM [3]: 100%
CC(C)CCN(C)c1ccc(-c2noc(-c3cccc(C(=O)NS(=O)(=O)c4cn(C)cn4)c3)n2)cc1NCc1ccc(OCCO)cc1 [Compound 137-IV] | 79 | 
CC(C)CCN(C)c1ccc(C(=O)NC(CC(=O)NS(=O)(=O)c2cn(C)cn2)C2CCCCC2)cc1N(C)Cc1ccccc1 (stereo not shown) [Compound 148-IV] | 63 | 

Continued, in another order:

inhibition at 1 µM [1] [%] | SMILES | further results
97 | CC(C)CCN(C)c1ccc(-c2noc(-c3cccc(C(=O)NS(=O)(=O)c4ccccc4)c3)n2)cc1NCc1ccc(OCCO)cc1 [compound 113] | 
100 | CC(C)CCN(C)c1ccc(-c2noc(-c3cccc(C(=O)NS(=O)(=O)c4ccccc4)c3)n2)cc1NCc1ccc2ccccc2c1 [compound 102] | 
93 | Cc1ccccc1S(=O)(=O)NC(=O)CC(NC(=O)c1ccc(N(C)CCC(C)C)c(N(C)Cc2ccccc2)c1)C1CCCCC1 (stereo not shown) [compound 118] | 
64 | Cc1ccccc1S(=O)(=O)NC(=O)CC(NC(=O)c1ccc(N(C)CCC(C)C)c(NCc2ccccc2[N+](=O)[O-])c1)C1CCCCC1 (stereo not shown) [compound 124] | 
97 | CCCCCC(=O)NS(=O)(=O)c1ccccc1NC(=O)c1ccc(Nc2ccccc2)c(NC(=O)c2ccc(C(F)(F)F)cc2)c1 [compound 25] | 
98 | Cc1ccccc1S(=O)(=O)NC(=O)CC(NC(=O)c1ccc(N(C)CCC(C)C)c(NCCc2ccccc2)c1)C1CCCCC1 (stereo not shown) [compound 125] | 
71 | CC(C)CCN(C)c1ccc(C(=O)NC(CC(=O)NS(=O)(=O)c2cn(C)cn2)C2CCCCC2)cc1NCC1CCCCC1 (stereo not shown) [Compound 161-IV] | 
49 | CC(C)CCN(C)c1ccc(C(=O)NC(CC(=O)NS(=O)(=O)c2ccccc2)C2CCCCC2)cc1NCc1nccs1 (stereo not shown) [compound 92] | 
74 | CCCCCC(=O)NS(=O)(=O)c1ccccc1NC(=O)c1ccc(Nc2ccccc2)c(NC(=O)c2ccccc2)c1 [compound 23] | 
98 | CC(C)CCN(C)c1ccc(-c2noc(-c3cccc(C(=O)NS(=O)(=O)c4ccccc4)c3)n2)cc1NCc1ccccc1O [compound 97] | 
52 | CC(C)CCN(C)c1ccc(C(=O)NC(CC(=O)NS(=O)(=O)c2ccccc2)C2CCCCC2)cc1NC(C)C (stereo not shown) [compound 84] | 

Reference: patent US7402696B2, “Benzene compounds” (Ajinomoto Co., Inc., priority 2004, dated 2008)
